Results from US8778974B2, “Trisubstituted 1,2,4 triazoles” (Janssen Pharmaceutica NV, priority 2008, dated 2014).

How the values were obtained:
[1] = molecular target: T1, hα7-wt nAChR-expressing cells (Homo sapiens, UniProt P36544); experiment: Ca2+ flux imaging (FDSS) (Protocol B), PAM activity with choline 100 μM; assay type: cell-based; conditions: according to Ex. D.1b; read-out: % Efficacy
T1 construct: expressed in transfected cells; host or cells: hα7-wt nAChR-expressing cells
Description: Ca^2+ Flux Imaging (FDSS) (Protocol B)
• a) Assay buffer • Hanks buffered saline solution (HBSS, Invitrogen, Belgium), supplemented with 10 mM HEPES (Invitrogen, Belgium), CaCl2 to a final concentration of 5 mM, 0.1% Bovine serum albumin (Sigma-Aldrich NV, Belgium). • b) Calcium-sensitive dye—Fluo-4AM • Fluo-4AM (Molecular Probes, USA) was dissolved in DMSO containing 10% Pluronic acid (Molecular Probes, USA) to give a stock solution which was diluted in assay buffer supplemented with 5 mM probenicid (Sigma, Al-drich NV, Belgium) to give a final concentration of 2 μM. • c) 384-well plates • Black 384 well plate black/clear plates, PDL pre-coated (Corning, Incorporated, USA) • d) Calcium flux measurement • A Functional drug screening system (FDSS, Hamamatsu) was used to measure intracellular free-calcium flux signals. Method
Monolayers of hα7-wt nAChR-expressing cells were grown in multi-well plates, in particular black-sided, transparent bottomed 384 well plates coated with poly-D-lysine for 24 hours prior to loading with a fluorescent calcium indicator, in a particular embodiment loading with fluo-4AM for up to 120 minutes.
PAM activity was detected in real time by applying the compounds to be tested to the loaded cells along with a α7 nicotinic receptor agonist during constant monitoring of cellular fluorescence in a FDSS. Compounds giving peak fluorescent responses greater than the response due to agonist alone, were considered to be α7 nAChR PAM's. In a particular embodiment, the α7 nicotinic receptor agonist was choline, a more particular embodiment choline applied at a sub-maximal concentration of 100 μM. In a further setting of the present invention the compounds to be tested were applied prior to the α7 nicotinic receptor agonist, in a particular embodiment up to 10 minutes prior to the agonist.
A control response to choline was calculated on each plate from the difference in peak in fluorescence in wells receiving either choline or assay buffer alone. Compounds of the present invention were tested at a concentration range from 0.01 μM to 30 μM. Compounds were considered to have an interesting activity when they potentiated the choline signal at least with 500% when tested at a concentration of 30 μM (the efficacy of 100 μM choline was defined as 100% in the absence of a PAM). The compounds also have a potentiating effect on the response to choline when measured by whole-cell patch clamp electrophysiology in GH4Cl cells stably over-expressing the human wild-type α7 receptor.

[2] = molecular target: T2, hα7-wt nAChR-expressing GH4Cl cells (Homo sapiens, UniProt P36544); experiment: Patch-clamp current recording (whole-cell), potentiation of choline 1 mM response, PAM type; assay type: cell-based; parameters: key to Pam type: Type 0 compounds minimally enhance the effect size of the current elicited by 1 mM choline.; Type 1 compounds enhance the effect size of the current elicited by 1 mM choline but minimally alter the kinetics of the receptor.; Type 2 compounds enhance the effect size of the current elicited by 1 mM choline while reducing the rate and/or the extent of desensitization.; Type 3 compounds enhance the effect size of the current elicited by 1 mM choline. When tested at higher concentrations up to 10 μM they completely inhibit desensitization, in particular a 1 mM choline application of 250 milliseconds.; Type 4 compounds allow for an initial desensitization of the receptor followed by a re-opening of the receptor during agonist application; conditions: for EC50: according to Ex. D.2, "<5" = no top plateau reached at maximal concentration, read-out: Potency (pEC50) (converted); for Pam type: patch-clamp current recording, 1 mM choline
T2 construct: expressed in transfected cells
T2 sequence (P36544 23-502): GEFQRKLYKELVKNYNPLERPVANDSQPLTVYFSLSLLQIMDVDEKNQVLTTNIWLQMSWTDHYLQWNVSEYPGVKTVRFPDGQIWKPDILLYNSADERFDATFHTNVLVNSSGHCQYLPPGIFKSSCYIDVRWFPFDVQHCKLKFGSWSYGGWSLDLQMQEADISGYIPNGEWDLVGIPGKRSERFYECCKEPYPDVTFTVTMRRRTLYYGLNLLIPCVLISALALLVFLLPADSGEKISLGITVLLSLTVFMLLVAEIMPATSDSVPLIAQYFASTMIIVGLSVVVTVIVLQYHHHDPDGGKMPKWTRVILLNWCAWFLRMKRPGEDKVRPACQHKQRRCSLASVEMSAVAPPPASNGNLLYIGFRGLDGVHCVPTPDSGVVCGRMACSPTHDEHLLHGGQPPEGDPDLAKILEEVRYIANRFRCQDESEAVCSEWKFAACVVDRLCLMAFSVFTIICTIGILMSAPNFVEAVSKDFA
How it was run: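 Whole-cell voltage clamp at −70 mV of GH4Cl cells expressing human α7 nAChR, with PAM and 1 mM choline co-applied by rapid-switching (<100 ms) microfluidics. External solution HEPES-buffered, 1 mM Ca, pH 7.3; CsCl-based internal. Compounds classified into PAM types by effect on current amplitude and desensitization kinetics.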

T1 sequence (P36544 23-502): as above

Emax [1] | melting point | Compound | EC50 [2] | Pam type [2]
909% | 252.1 °C | Cc1cc(-n2nc(Nc3ccc(F)c(F)c3F)nc2CC(=O)NC(C)C)cc(C)n1 [E213] | 468 nM | 2
730% | 213.7 °C | Cc1cc(-n2nc(Nc3ccc(F)c(F)c3F)nc2CC(=O)NCC2CC2)cc(C)n1 [E214] | 132 nM | 2
658% | 296.1 °C | CCNC(=O)Cc1nc(Nc2cc(F)c(F)c(F)c2)nn1-c1cc(C)nc(C)c1 [E215] | 214 nM | 2
576% | 246.2 °C | CNC(=O)Cc1nc(Nc2cc(Cl)cc(OC)c2)nn1-c1cc(C)nc(C)c1 [E216] | 603 nM | 4
702% | 254 °C | CCNC(=O)Cc1nc(Nc2cc(Cl)cc(OC)c2)nn1-c1cc(C)nc(C)c1 [E219] | 269 nM | 4
620% | 264.4 °C | COc1cc(Cl)cc(Nc2nc(CC(=O)NC3CC3)n(-c3cc(C)nc(C)c3)n2)c1 [E221] | 209 nM | 4
440% | 257.8 °C | COc1cc(Cl)cc(Nc2nc(CC(=O)NC3CCC3)n(-c3cc(C)nc(C)c3)n2)c1 [E222] | 83.2 nM | 1
603% | 264.2 °C | CNC(=O)Cc1nc(Nc2ccc(F)c(C(F)(F)F)c2)nn1-c1cc(C)nc(C)c1 [E223] | 316 nM | –
600% | 256.2 °C | CCNC(=O)Cc1nc(Nc2ccc(F)c(C(F)(F)F)c2)nn1-c1cc(C)nc(C)c1 [E224] | 204 nM | 1
660% | 248.8 °C | Cc1cc(-n2nc(Nc3ccc(F)c(C(F)(F)F)c3)nc2CC(=O)NC2CCC2)cc(C)n1 [E225] | 100 nM | 0
654% | 263 °C | CNC(=O)Cc1nc(Nc2ccc(OC)c(C(F)(F)F)c2)nn1-c1cc(C)nc(C)c1 [E227] | 457 nM | 4
680% | 265.7 °C | COc1ccc(Nc2nc(CC(=O)NC3CC3)n(-c3cc(C)nc(C)c3)n2)cc1C(F)(F)F [E229] | 135 nM | 4
417% | 287.4 °C | Cc1cc(-n2nc(Nc3ccc(F)c(Cl)c3)nc2CC(=O)NC2CC2)cc(C)n1 [E230] | 141 nM | –
606% | 273.9 °C | Cc1cc(-n2nc(Nc3ccc(F)c(Cl)c3)nc2CC(=O)NC2CCC2)cc(C)n1 [E231] | 57.5 nM | –
289% | 282.1 °C | CNC(=O)Cc1nc(Nc2cc(F)cc(F)c2)nn1-c1cc(C)nc(C)c1 [E232] | 871 nM | –
459% | 200.2 °C | Cc1cc(-n2nc(Nc3ccc(F)c(F)c3)nc2CCC(=O)N(C)C)cc(C)n1 [E234, 3-[(3,4-difluorophenyl)amino]-1-(2,6-dimethyl-4-pyridinyl)-N,N-dimethyl-1H-1,2,4-triazole-5-propanamide] | 61.7 nM | –
419% | 178 °C | Cc1cc(-n2nc(Nc3ccc4c(c3)OC(F)(F)O4)nc2CCC(=O)N(C)C)cc(C)n1 [E235, 3-[(2,2-difluoro-1,3-benzodioxol-5-yl)amino]-1-(2,6-dimethyl-4-pyridinyl)-N,N-dimethyl-1H-1,2,4-triazole-5-propanamide] | 28.8 nM | –

Emax [1] | melting point | Compound | EC50 [2] | Pam type [2]
391% | 268.7 °C | COc1ccc(Nc2nc(CC(=O)NC3CCC3)n(-c3cc(C)nc(C)c3)n2)cc1C(F)(F)F [E236] | 120 nM | –
522% | 289 °C | CCNC(=O)Cc1nc(Nc2cc(F)cc(F)c2)nn1-c1cc(C)nc(C)c1 [E237] | 407 nM | –
382% | 289.2 °C | Cc1cc(-n2nc(Nc3cc(F)cc(F)c3)nc2CC(=O)NC2CC2)cc(C)n1 [E238] | 575 nM | –
372% | 286.7 °C | Cc1cc(-n2nc(Nc3cc(F)cc(F)c3)nc2CC(=O)NC2CCC2)cc(C)n1 [E239] | 126 nM | –
628% | 297.4 °C | CNC(=O)Cc1nc(Nc2cc(F)c(F)c(F)c2)nn1-c1cc(C)nc(C)c1 [E240] | 490 nM | –
653% | 295.7 °C | Cc1cc(-n2nc(Nc3cc(F)c(F)c(F)c3)nc2CC(=O)NC2CC2)cc(C)n1 [E241] | 138 nM | –
676% | 291.9 °C | Cc1cc(-n2nc(Nc3cc(F)c(F)c(F)c3)nc2CC(=O)NC2CCC2)cc(C)n1 [E242] | 95.5 nM | –
802% | 284.6 °C | CNC(=O)Cc1nc(Nc2cc(OC)cc(C(F)(F)F)c2)nn1-c1cc(C)nc(C)c1 [E243] | 204 nM | –
701% | 278.4 °C | COc1cc(Nc2nc(CC(=O)NC3CCC3)n(-c3cc(C)nc(C)c3)n2)cc(C(F)(F)F)c1 [E244] | 31.6 nM | –
614% | 280.7 °C | CNC(=O)Cc1nc(Nc2cc(F)cc(Cl)c2)nn1-c1cc(C)nc(C)c1 [E245] | 398 nM | –
494% | 290.2 °C | CCNC(=O)Cc1nc(Nc2cc(F)cc(Cl)c2)nn1-c1cc(C)nc(C)c1 [E246] | 275 nM | –
663% | 289.3 °C | Cc1cc(-n2nc(Nc3cc(F)cc(Cl)c3)nc2CC(=O)NC2CC2)cc(C)n1 [E247] | 214 nM | –
421% | 287 °C | Cc1cc(-n2nc(Nc3cc(F)cc(Cl)c3)nc2CC(=O)NC2CCC2)cc(C)n1 [E248] | 107 nM | –
546% | 283.2 °C | CCNC(=O)Cc1nc(Nc2ccc(F)c(Cl)c2)nn1-c1cc(C)nc(C)c1 [E250] | 105 nM | –
658% | 286.2 °C | CNC(=O)Cc1nc(Nc2cc(F)cc(C(F)(F)F)c2)nn1-c1cc(C)nc(C)c1 [E251] | 263 nM | –
930% | 284.5 °C | CCNC(=O)Cc1nc(Nc2cc(F)cc(C(F)(F)F)c2)nn1-c1cc(C)nc(C)c1 [E252] | 195 nM | –
950% | 286.3 °C | Cc1cc(-n2nc(Nc3cc(F)cc(C(F)(F)F)c3)nc2CC(=O)NC2CC2)cc(C)n1 [E253] | 91.2 nM | –

Compound | Emax [1] | melting point | EC50 [2] | Pam type [2]
Cc1cc(-n2nc(Nc3cc(F)cc(C(F)(F)F)c3)nc2CC(=O)NC2CCC2)cc(C)n1 [E254] | 662% | 291.8 °C | 75.9 nM | –
